One data set deals with T1, human mGluR2 receptor (Homo sapiens, UniProt Q14416).
T1 construct: expressed in transfected cells; host or cells: CHO cells
Briefly: [35S]GTPγS binding assay (PAM assay), membranes from CHO cells transfected with human mGluR2. Type of data set: biochemical. The note with it: in presence of glutamate at predetermined EC25 concentration; averages of duplicate values of 11-concentration response curves; read-out: GTPγS - hR2 PAM pEC50 (converted). The text has this:
The compounds provided in the present invention are positive allosteric modulators of mGluR2. These compounds appear to potentiate glutamate responses by binding to an allosteric site other than the glutamate binding site. The response of mGluR2 to a concentration of glutamate is increased when compounds of Formula (I) are present. Compounds of Formula (I) are expected to have their effect substantially at mGluR2 by virtue of their ability to enhance the function of the receptor. The behaviour of positive allosteric modulators tested at mGluR2 using the [^35S]GTPγS binding assay method described below and which is suitable for the identification of such compounds, and more particularly the compounds according to Formula (I), are shown in Table 2.
The [^35S]GTPγS binding assay is a functional membrane-based assay used to study G-protein coupled receptor (GPCR) function whereby incorporation of a non-hydrolysable form of GTP, [^35S]GTPγS (guanosine 5′-triphosphate, labelled with […] ^35S), is measured. The G-protein α subunit catalyzes the exchange of guanosine 5′-diphosphate (GDP) by guanosine triphosphate (GTP) and on activation of the GPCR by an agonist, [^35S]GTPγS, becomes incorporated and cannot be cleaved to continue the exchange cycle (Harper (1998) Current Protocols in Pharmacology 2.6.1-10, John Wiley & Sons, Inc.). […] Here we describe the use of the [^35S]GTPγS binding assay using membranes from cells transfected with the human mGluR2 receptor and adapted from Schaffhauser et al ((2003) Molecular Pharmacology 4:798-810) for the detection of the positive allosteric modulation (PAM) properties of the compounds of this invention.
CHO-cells were cultured to pre-confluence and stimulated with 5 mM butyrate for 24 hours, prior to washing in PBS, and then collected by scraping in homogenisation buffer (50 mM Tris-HCl buffer, pH 7.4, 4° C.). […] Protein concentration was determined by the Bradford method (Bio-Rad, USA) with bovine serum albumin as standard.
Measurement of mGluR2 positive allosteric modulatory activity of test compounds in membranes containing human mGluR2 was performed using frozen membranes that were thawed and briefly homogenized prior to pre-incubation in 96-well microplates (15 μg/assay well, 30 minutes, 30° C.) in assay buffer (50 mM HEPES pH 7.4, 100 mM NaCl, 3 mM MgCl2, 50 μM GDP, 10 μg/ml saponin,) with increasing concentrations of positive allosteric modulator (from 0.3 nM to 50 μM) and either a minimal pre-determined concentration of glutamate (PAM assay), or no added glutamate. […] Filters were then air-dried, and 40 μl of liquid scintillation cocktail (Microscint-O) was added to each well, and membrane-bound [^35S]GTPγS was measured in a 96-well scintillation plate reader (Top-Count, Perkin-Elmer, USA). […]
A general note: Binding of GTPγS marks nucleotide exchange on a G protein.

T1 sequence (Q14416 19-872): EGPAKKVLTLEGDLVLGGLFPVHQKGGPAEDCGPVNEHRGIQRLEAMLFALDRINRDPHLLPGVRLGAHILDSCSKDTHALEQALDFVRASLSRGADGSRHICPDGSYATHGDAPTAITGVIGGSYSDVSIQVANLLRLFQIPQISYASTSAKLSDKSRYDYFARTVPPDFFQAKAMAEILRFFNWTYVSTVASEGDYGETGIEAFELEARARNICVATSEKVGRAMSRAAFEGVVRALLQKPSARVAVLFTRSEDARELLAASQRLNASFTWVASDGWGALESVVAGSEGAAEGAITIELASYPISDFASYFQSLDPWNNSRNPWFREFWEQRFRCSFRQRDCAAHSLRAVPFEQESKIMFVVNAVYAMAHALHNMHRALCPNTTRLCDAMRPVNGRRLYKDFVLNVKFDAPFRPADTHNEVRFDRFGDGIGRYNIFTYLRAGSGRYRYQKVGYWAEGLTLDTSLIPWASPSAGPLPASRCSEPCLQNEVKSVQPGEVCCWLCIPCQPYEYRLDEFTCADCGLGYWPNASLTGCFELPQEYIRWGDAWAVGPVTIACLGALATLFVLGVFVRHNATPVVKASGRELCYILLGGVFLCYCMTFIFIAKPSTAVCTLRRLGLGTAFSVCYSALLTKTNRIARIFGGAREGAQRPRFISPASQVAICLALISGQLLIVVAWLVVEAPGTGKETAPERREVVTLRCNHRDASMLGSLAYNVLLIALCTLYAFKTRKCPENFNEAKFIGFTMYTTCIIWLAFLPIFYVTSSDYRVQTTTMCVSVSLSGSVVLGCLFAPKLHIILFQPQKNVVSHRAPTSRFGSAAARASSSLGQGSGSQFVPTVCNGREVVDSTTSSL

One may read the melting point as the temperature of the solid-liquid transition. In turn, `O=c1c(Cl)c(N2CC3[C@H](C2)[C@H]3c2ccccc2)ccn1CC1CC1` (stereo partly drawn) [Compound E1, (2aα,3α,3aα)-3-Chloro-1-cyclopropylmethyl-4-(6-phenyl-3-aza-bicyclo[3.1.0]hex-3-yl)-1H-pyridin-2-one] displayed a melting point of 172.2 °C. In addition, the EC50 at human mGluR2 receptor was 275 nM.

On to `CCCCn1ccc(N2C[C@@H]3[C@@H](COc4cc(Cl)ccc4Cl)[C@@H]3C2)c(Cl)c1=O` [Compound E2], for which the EC50 at human mGluR2 receptor was 123 nM.

For the compound `CCCCn1ccc(N2C[C@@H]3[C@H](COc4cc(Cl)ccc4Cl)[C@@H]3C2)c(Cl)c1=O` [Compound E3], on human mGluR2 receptor, the EC50 is 126 nM.

As to `CCCCn1ccc(N2C[C@@H]3[C@H](C2)[C@H]3c2ccccc2)c(Cl)c1=O` [Compound E4, (2aα,3α,3aα)-1-Butyl-3-chloro-4-(6-phenyl-3-aza-bicyclo[3.1.0]hex-3-yl)-1H-pyridin-2-one], the melting point was found to be 185.9 °C. At human mGluR2 receptor, the EC50 is 89.1 nM.

For the origin of these results see patent US8691849B2, “3-azabicyclo[3.1.0]hexyl derivatives as modulators of metabotropic glutamate receptors” (Janssen Pharmaceuticals, Inc., priority 2008, dated 2014).
